System: platelet aggregation (Dog PRP)
Assay: In-Vitro Platelet Aggregation in PRP (ADP-induced, dog platelet-rich plasma)
Assay type: cell-based
Details: Canis lupus familiaris, ADP 50 um final concentration; for IC50: linear regression of dose response curve, read-out: IC50 (dosage at which 50% of platelet aggregation is inhibited)
Description: Healthy male or female dogs were fasted for 8 hours prior to drawing blood; then 30 ml whole blood was collected using a butterfly needle and 30 cc plastic syringe with 3 ml or 0.129M buffered sodium citrate (3.8%). The syringe was rotated carefully as blood was drawn to mix the citrate. Platelet-rich plasma (PRP) was prepared by centrifugation at 975 x g for 3.17 minutes at room temperature allowing the centrifuge to coast to a stop without braking. The PRP was removed from the blood with a plastic pipette and placed in a plastic capped, 50 mL Corning conical sterile centrifuge tube which was held at room temperature. Platelet poor plasma (PPP) was prepared by centrifuging the remaining blood at 2000 x g for 15 minutes at room temperature allowing the centrifuge to coast to a stop without braking. The PRP was adjusted with PPP to a count of 2-3×10^8 platelets per mL. 400 uL of the PRP preparation and 50 uL of the compounds solution to be tested or saline were preincubated for 1 minute at 37° C. in a […].). 50 uL of adenosine 5' diphosphate (ADP) (50 um final concentration) was added to the cuvettes and the aggregation was monitored for 1 minute. All compounds are tested in duplicate. Results are calculated as follows: Percent of control=[(maximal OD minus initial OD of compound) divided by (maximal OD minus initial OD of control saline)]×100. The % inhibition=100-(percent of control).
The compounds tested and their median inhibitory concentrations (IC50) are recorded in Table I. IC50 's (dosage at which 50% of platelet aggregation is inhibited) were calculated by linear regression of the dose response curve.

| SMILES | IC50 [µM] | inhibition at 10 µM (compound at 10^-5 M, read-out: % Inh. (inhibition of platelet aggregation)) [%] |
| --- | --- | --- |
| N=C(N)c1ccc(CNc2cccc(C(=O)NC(CC(=O)O)c3cccnc3)c2)cc1 (stereo not drawn) [Example 4, β-[[3-[4-(aminoiminomethyl)benzyl]aminobenzoyl]amino]-3-pyridinepropanoic acid] | 6.8 | – |
| N=C(N)c1ccc(CNCCC(=O)NC(CC(=O)O)c2cccnc2)cc1 (stereo not drawn) [Example 6, β-[[3-[4-(aminoiminomethyl)benzyl]aminopropanoyl]amino]-3-pyridinepropanoic acid] | 0.8 | – |
| N=C(N)c1ccc(CNc2cccc(C(=O)NCCC(=O)O)c2)cc1 [Example 2, β-[[3-[4-(aminoiminomethyl)benzyl]aminobenzoyl]amino]propanoic acid] | – | 28 |

Source: US5710166A, “N-acyl beta amino acid derivatives useful as platelet aggregation inhibitors” (The Monsanto Company, priority 1995, dated 1998)
